25 compounds from ChEMBL document CHEMBL1146178, “Synthesis and antiviral activity against tobacco mosaic virus and 3D-QSAR of alpha-substituted-1,2,3-thiadiazoleacetamides” (Bioorg Med Chem Lett, 2006) can be followed below.

The structures appear in SMILES notation.

In general, IC50 refers to the concentration that gives 50% inhibition. The term Inhibition denotes the share of the control response that was lost under treatment. A word on the inhibition: it is how much of the control response was suppressed. High values mean a strong effect, low ones a weak effect.

The test system of the first experiment is Hepatitis B virus. In words: Antiviral activity against HBV in HepG2 2.2.15 cells assessed as inhibition of viral DNA synthesis. It counts as functional, organism-based.
For the compound `CNC(=O)C(Oc1cc(C)ccc1Cl)c1csnn1` (stereo not given), the concentration for half-maximal inhibition (IC50) was determined as 400 µM.

For a further experiment, the system named is Hepatitis B virus. In words: Antiviral activity against HBV in HepG2 2.2.15 cells assessed as inhibition of HBeAg at 0.6 umol/mL. The experiment is classed as functional.
As for `CNC(=O)C(Oc1cc(C)ccc1Cl)c1csnn1` (stereo not given), the Inhibition stood at 15.5%.

The test system of another experiment is Tobacco mosaic virus. In words: Antiviral activity against TMV at 500 mg/L. The experiment is classed as functional.
The compound `CNC(=O)C(Sc1ccc(Cl)cc1)c1csnn1` (stereo not given) came in with an inhibition at 500 µg/mL of 42%. Still for that read-out and setting: then `CNC(=O)C(Sc1ccc(F)cc1)c1csnn1` (stereo not given), with 33%; and `CNC(=O)C(c1csnn1)[S+]([O-])Cc1ccc(Cl)cc1` (stereo not given), with 20%; and `CNC(=O)C(Sc1cc(C)ccc1C)c1csnn1` (stereo not given), with 0%.

As to `CNC(=O)C(c1csnn1)[S+]([O-])c1ccc(F)cc1` (stereo not given), testing at 500 µg/mL gave an inhibition of 11%. `CNC(=O)C(c1csnn1)S(=O)(=O)c1ccc(OC)cc1` (stereo not given) returned an inhibition at 500 µg/mL of 0%.

`CNC(=O)C(Sc1ccccc1F)c1csnn1` (stereo not given) displayed an inhibition at 500 µg/mL of 37%. For the compound `CNC(=O)C(c1csnn1)[S+]([O-])c1ccc(Cl)cc1` (stereo not given), at 500 µg/mL the inhibition was 31%.

`CNC(=O)C(Sc1cc(Cl)ccc1Cl)c1csnn1` (stereo not given) gave an inhibition at 500 µg/mL of 0%. Still for that read-out and setting: the value for `CNC(=O)C(Sc1nc2nc(C)cc(C)n2n1)c1csnn1` (stereo not given) was 5%. Take `CNC(=O)C(c1csnn1)S(=O)(=O)c1ccccc1F` (stereo not given): the inhibition at 500 µg/mL stood at 82%. Same read-out and setting: then `CNC(=O)C(SCc1ccc(Cl)cc1)c1csnn1` (stereo not given), with 35%; and `CNC(=O)C(c1csnn1)[S+]([O-])c1cc(C)ccc1C` (stereo not given), with 0%; and `CNC(=O)C(Oc1ccc(Br)cc1)c1csnn1` (stereo not given), with 64%. For the compound `CNC(=O)C(c1csnn1)S(=O)(=O)c1ccc(F)cc1` (stereo not given), the inhibition at 500 µg/mL stood at 19%. Compound `CNC(=O)C(Oc1cccc(C)c1)c1csnn1` (stereo not given) showed an inhibition at 500 µg/mL of 5.5%. Compound `CNC(=O)C(c1csnn1)n1cncn1` (stereo not given) displayed an inhibition at 500 µg/mL of 42%. As for `CNC(=O)C(Oc1cc(C)ccc1Cl)c1csnn1` (stereo not given), the inhibition at 500 µg/mL is 56%. As to `CNC(=O)C(c1csnn1)[S+]([O-])c1ccccc1F` (stereo not given), 500 µg/mL produced 19% inhibition. On the same count and under the same terms, the value for `CNC(=O)C(Oc1ccc2ccccc2c1)c1csnn1` (stereo not given) was 44%. On to `CNC(=O)C(c1csnn1)S(=O)(=O)Cc1ccc(Cl)cc1` (stereo not given), for which 500 µg/mL produced 51% inhibition. Same read-out and setting: then `CNC(=O)C(Sc1nnc(-c2c(C)nn(C)c2SC)s1)c1csnn1` (stereo not given), with 35%; and `CNC(=O)C(Oc1ccccc1Br)c1csnn1` (stereo not given), with 44%. On the same count and under the same terms, the value for `CNC(=O)C(Oc1ccccc1Cl)c1csnn1` (stereo not given) was 53%; that for `CNC(=O)C(c1csnn1)S(=O)(=O)c1cc(C)ccc1C` (stereo not given) was 12%.

For a further experiment, the system named is Hepatitis B virus. The experiment can be described thus: Antiviral activity against HBV in HepG2 2.2.15 cells assessed as inhibition of HBeAg at 0.4 umol/mL. It counts as functional.
For the compound `CNC(=O)C(Oc1cc(C)ccc1Cl)c1csnn1` (stereo not given), the Inhibition was 44.2%.

The next experiment concerns Hepatitis B virus. In words: Antiviral activity against HBV in HepG2 2.2.15 cells assessed as inhibition of HBsAg at 0.4 umol/mL. The experiment is classed as functional.
As to `CNC(=O)C(Oc1cc(C)ccc1Cl)c1csnn1` (stereo not given), the Inhibition is on record as 52.9%.

The subject of a further experiment is Hepatitis B virus. In words: Antiviral activity against HBV in HepG2 2.2.15 cells assessed as inhibition of HBsAg at 0.6 umol/mL. It counts as functional.
Take `CNC(=O)C(Oc1cc(C)ccc1Cl)c1csnn1` (stereo not given): the Inhibition was found to be 88.6%.
